According to PMC10810823, “Generation of a new therapeutic D-peptide that induces the differentiation of acute myeloid leukemia cells through A TLR-2 signaling pathway” (Cell Death Discovery, 2024):
Where a SMILES comes first, the peptide text is derived from it. Where no end group is shown, it is not given here. [ ]: non-standard residue; d: D form.

Legend:
[1] = In vivo pharmacokinetic assay; parameters: species or system NOD/SCID mice
Protocol: In addition, we administered a therapeutic dose of D-pep-P6 (20 mg/kg) via intravenous tail injection into NOD/SCID mice (n = 3 per group). Serum samples were collected at various time points, and the content of D-pep-P6 was quantitatively analyzed using high-performance liquid chromatography coupled with mass spectrometry (Supplemental Fig. 3).
Female NOD/SCID mice weighing between 18 and 20 g were utilized for the pharmacokinetic analysis of D-pep-p6. In the plasma, D-pep-p6 pharmacokinetic profile analysis, groups of mice (n = 3) were administered a single intravenous dose of 20 mg/kg. Blood samples were collected at specified time intervals and subsequently centrifuged at 8000 rpm for 10 min. The resulting plasma was mixed with CH4O in a 3:1 (v/v) ratio and centrifuged once more at 13,000 rpm for 10 min. The supernatant was then analyzed using RP-HPLC to determine parameters such as the maximum plasma concentration (Cmax) and elimination half-life (T1/2).

NOD/SCID mice = experiment: In vivo toxicity at 10-fold treatment dose (H&E of major organs, glucose and serum biochemical indices); conditions: 200 mg/kg i.v. every 3 days, 30 days, n = 3 per group
Protocol: Based on the above in vitro findings, we next tested whether the peptides could suppress the growth of leukemia cells in vivo. To this end, NOD/SCID mice were subcutaneously inoculated with THP-1 cells. L-pep-P6, D-pep-P6, or pep-NC was injected intravenously into NOD/SCID mice (n = 3 per group) at a 10-fold treatment dose (200 mg/kg) every 3 days. We first examined the toxicity of these peptides in vivo. After 30 days of indicated treatments, the major organs, including the heart, kidney, spleen, liver, and lung, were isolated and stained with hematoxylin and eosin. No histological changes in major organs were detectable in the peptide-treated groups when compared with the untreated group (Fig. 4A). We further examined the glucose and serum biochemical indices, such as aspartate aminotransferase (AST), alanine aminotransferase (ALT), creatinine (Cr), and urea.
The mice were categorized into three groups, including the pep-NC group, the D-pep-P6 group, and the […] group (n = 3 per group). These groups received a dosage that was ten times the standard therapeutic amount via the tail vein. Major organs of mice from different treated groups were fixed in 4% formaldehyde for hematoxylin and eosin staining. Following a hydration process, the tissues were stained with Harris hematoxylin for 15 min. […]

THP-1 cells [2] = experiment: Cell differentiation induction: ratio of adherent cells; type: cell-based, human; conditions: clonal phages P1, P2, P6, P9 enriched in Round 3; Fig. 1G
Protocol: (§1) The THP-1, U937, and HL-60 cell lines were purchased from ATCC. THP-1, HL-60, and U937 cells were cultured in RPMI 1640 containing 2 mM glutamine, 100 IU/ml penicillin and 100 μg/ml streptomycin (Sigma), supplemented with 10% fetal bovine serum (FBS; Gibco). Cell cultures were maintained at 37 °C, 5% CO2 at 0.8–1 × 10^5 cells/ml. For the initiation of differentiation in THP-1, HL-60, U937, and primary AML cells, the cells were seeded into 12-well tissue culture plates at 1 × 10^6 cells/well. Subsequently, these cells were exposed to the indicated clonal phages (10^10 virions per well), peptides (10 μg/ml), or 100 nM PMA (Sigma-Aldrich, MO, USA).
Cells were cultured according to the method described above. As the adherent cell numbers reached a peak at 48 h and declined after 72 h, we chose 48 h as the incubation time in the following experiments. Following the incubation period, cells within each were washed 3 times with PBS. Cells were considered to be adherent if they resisted the vigorous shake of the culture flask and washing by pipetting with a normal growth medium. To assess the ratio of adherent cells, an equal amount of FITC beads (BioLegend, Catalog # 424601, CA, USA) was separately introduced to both suspended and adherent cells. Subsequently, the proportions of FITC beads were measured using FACS. […]

THP-1 cells [3] = experiment: Differentiation: cell surface CD11b and CD14 by FACS; type: cell-based, human; conditions: THP-1, 48 h; ***P < 0.001; 6 independent experiments
Protocol: as §1
Differentiation status was also assessed by morphological observation of the cells and by FACS detection of cell surface CD11b and CD14 expression (Table 3). FcR Blocking Reagent (Miltenyi Biotec) was employed to prevent undesired antibody binding and enhance the staining specificity of cell surface antigens.

THP-1 cells [4] = experiment: Apoptosis by Annexin V/propidium iodide staining, flow cytometry; type: cell-based, human; conditions: THP-1, 48 h; Fig. 1C
Protocol: as §1
APC Annexin V Apoptosis Detection Kit with PI (BioLegend, Catalog # 640932, CA, USA) was employed to evaluate cell apoptosis. Target cells were washed twice with cold BioLegend’s Cell Staining Buffer, then suspended in Annexin V Binding Buffer at a concentration of 0.25–1.0 × 10^7 cells/ml. To 100 µL of the cell suspension, 5 µL of APC Annexin V and 10 µL of Propidium Iodide Solution (PI) were added. The suspension was gently vortexed and incubated in the dark for 15 minutes at room temperature. Finally, 400 µL of Annexin V Binding Buffer was added to each tube, and the samples were analyzed by flow cytometry. […]

THP-1 cells [5] = experiment: Proliferation by Ki-67 staining, FACS; type: cell-based, human; conditions: THP-1, 48 h; Fig. 1D
Protocol: as §1
To assess proliferation, Ki-67 was detected using FACS after 48 h of cell culture exposed to a specific stimulation. Following the manual instruction, the target cells were incubated with 70% cold ethanol at −20 °C for 1 h, washed, and then suspended at a concentration of 1.0 × 10^7/ml in BioLegend Cell Staining Buffer. Subsequently, 100 µl cell suspension was incubated with the 5 µl Ki-67 antibody for flow cytometric analysis.

CC(C)C[C@@H](NC(=O)[C@@H](CCC(=O)O)NC(=O)[C@H](NC(=O)CNC(=O)[C@@H](Cc1ccccc1)NC(=O)CNC(=O)[C@H]1CCCN1C(=O)[C@@H](Cc1ccccc1)NC(=O)[C@H](N)CCC(N)=O)[C@H](C)O)C(=O)N1CCC[C@@H]1C(=O)N[C@H](CO)C(=O)N[C@H](CO)C(=O)O [D-pep-P6] (H-[dQ][dF][dP]G[dF]G[dT][dE][dL][dP][dS][dS]-OH)
resistance to proteolysis / stability in vivo ([1]; NOD/SCID mice, i.v. 20 mg/kg, from concentration-time curve): remarkable resistance to proteolysis
Cmax ([1]; mouse, iv, female NOD/SCID mice, single i.v. 20 mg/kg, n = 3 per time point, plasma (serum), RP-HPLC (HPLC coupled with mass spectrometry), read-out: maximum concentration (Cmax)): 13.2 µg/mL
signs of toxicity / overall toxicity (NOD/SCID mice): low toxicity

QFPGFGTELPSS [L-pep-P6]
signs of toxicity / overall toxicity (NOD/SCID mice): low toxicity

QFPGFGTELPSS [P6, monoclonal phage from Ph.D.-12 library displaying …]
capability for inducing THP-1 cell differentiation (percentage of adherent cells) among clonal phages (THP-1 cells [2]): greatest capability for inducing THP-1 cell differentiation
MFI of CD11b expression induced by P6 relative to that induced by PMA (THP-1 cells [3]): 1.5 fold
MFI of CD14 expression induced by P6 relative to that induced by PMA (THP-1 cells [3]): 1.3 fold

CCCCCCCCCCCCCC(=O)O[C@@H]1[C@@H](C)[C@@]2(O)[C@@H](C=C(CO)C[C@]3(O)C(=O)C(C)=C[C@@H]23)[C@@H]2C(C)(C)[C@]12OC(C)=O [PMA, phorbol 12-myristate 13-acetate]
proportions of apoptotic and necrotic cells compared to the unstimulated group (THP-1 cells [4]): slight increase
proliferation (Ki-67 expression) compared to negative control (THP-1 cells [5]): significant reduction in proliferation
